How the values were obtained:
[1] = target: Human immunodeficiency virus type 1 reverse transcriptase (Human immunodeficiency virus 1, UniProt Q72547); experiment: Inhibition of wild type HIV-1 reverse transcriptase using biotin-labelled dNTPs as substrate incubated for 2 hrs by ELISA
[2] = tested on: Human immunodeficiency virus 1; experiment: Antiviral activity against HIV-1 IIIB infected in human MT4 cells assessed as protection against virus-induced cytotoxicity incubated for 5 days by MTT assay; type: functional, organism-based; settings: Human immunodeficiency virus 1, IIIB, MT4, 120 h
[3] = tested on: Human immunodeficiency virus 1; experiment: Antiviral activity against HIV-1 IIIB harboring K103N/Y181C double mutant infected in human MT4 cells assessed as protection against virus-induced cytotoxicity incubated for 5 days by MTT assay; type: functional, organism-based; settings: Human immunodeficiency virus 1, IIIB, MT4, 120 h
[4] = Cytotoxicity against human MT4 cells assessed as reduction in cell viability incubated for 5 days by MTT assay; type: toxicity, cell-based; settings: time 5 day
[5] = Selectivity index, ratio of CC50 for human MT4 cells to EC50 for antiviral activity against HIV-1 IIIB infected in human MT4 cells; type: toxicity, cell-based; settings: MT4 cells (uninfected and infected with HIV-1 IIIB), read-out: Ratio CC50/EC50
[6] = Selectivity index, ratio of CC50 for human MT4 cells to EC50 for antiviral activity against HIV-1 IIIB harboring K103N/Y181C double mutant infected in human MT4 cells; type: toxicity, cell-based; settings: read-out: Ratio CC50/EC50
[7] = tested on: Human immunodeficiency virus 1; experiment: Antiviral activity against HIV1 L1001 infected in human MT4 cells assessed as protection against virus-induced cytopathic effect incubated for 5 days by MTT assay; type: functional, organism-based; settings: Human immunodeficiency virus 1, L1001, MT4, 120 h
[8] = tested on: Human immunodeficiency virus 1; experiment: Antiviral activity against HIV-1 harboring reverse transcriptase K103N mutant infected in human MT4 cells assessed as protection against virus-induced cytopathic effect incubated for 5 days by MTT assay; settings: Human immunodeficiency virus 1, MT4, 120 h
[9] = tested on: Human immunodeficiency virus 1; experiment: Antiviral activity against HIV-1 harboring reverse transcriptase Y181C mutant infected in human MT4 cells assessed as protection against virus-induced cytopathic effect incubated for 5 days by MTT assay; settings: Human immunodeficiency virus 1, MT4, 120 h
[10] = tested on: Human immunodeficiency virus 1; experiment: Antiviral activity against HIV-1 harboring reverse transcriptase Y188L mutant infected in human MT4 cells assessed as protection against virus-induced cytopathic effect incubated for 5 days by MTT assay; settings: Human immunodeficiency virus 1, MT4, 120 h
[11] = tested on: Human immunodeficiency virus 1; experiment: Antiviral activity against HIV-1 harboring reverse transcriptase E138K mutant infected in human MT4 cells assessed as protection against virus-induced cytopathic effect incubated for 5 days by MTT assay; settings: Human immunodeficiency virus 1, MT4, 120 h
[12] = tested on: Human immunodeficiency virus 1; experiment: Antiviral activity against HIV-1 harboring reverse transcriptase F227L/V106A mutant infected in human MT4 cells assessed as protection against virus-induced cytopathic effect incubated for 5 days by MTT assay; settings: Human immunodeficiency virus 1, MT4, 120 h
[13] = tested on: Human immunodeficiency virus 1; experiment: Antiviral activity against HIV-1 IIIB; type: functional, organism-based; settings: Human immunodeficiency virus 1, IIIB
[14] = tested on: Human immunodeficiency virus 1; experiment: Antiviral activity against HIV-1 IIIB harboring K103N/Y181C double mutant; type: functional, organism-based; settings: Human immunodeficiency virus 1, IIIB
[15] = Cytotoxicity against human MT4 cells; type: toxicity, cell-based
[16] = Selectivity index, ratio of CC50 for human MT4 cells to EC50 for antiviral activity against HIV-1 IIIB; type: toxicity; settings: read-out: Ratio CC50/EC50
[17] = Selectivity index, ratio of CC50 for human MT4 cells to EC50 for antiviral activity against HIV-1 IIIB harboring K103N/Y181C double mutant; type: toxicity; settings: read-out: Ratio CC50/EC50

| Structure (SMILES) | IC50 [1] | EC50 [2] | EC50 [3] | CC50 at 120 h [4] | selectivity ratio [5] | selectivity ratio [6] | EC50 [7] | EC50 [8] | EC50 [9] | EC50 [10] | EC50 [11] | EC50 [12] | further results |
| --- | --- | --- | --- | --- | --- | --- | --- | --- | --- | --- | --- | --- | --- |
| Cc1cc(/C=C/C#N)cc(C)c1Oc1nc(Nc2ccc(CN3CCN(S(N)(=O)=O)CC3)cc2)nc2c1COC2 | 0.28 µM |  |  |  |  |  |  |  |  |  |  |  |  |
| Cc1cc(/C=C/C#N)cc(C)c1Oc1nc(NC2CCN(c3ccc(S(C)(=O)=O)cc3)CC2)nc2c1COC2 | 0.07 µM | 0.0063 µM | 1.2 µM | 104 µM | 16500 | 87 |  |  |  |  |  |  |  |
| Cc1cc(/C=C/C#N)cc(C)c1Oc1nc(Nc2ccc(CN3CCN(S(C)(=O)=O)CC3)cc2)nc2c1COC2 | 0.15 µM |  |  |  |  |  |  |  |  |  |  |  |  |
| Cc1cc(/C=C/C#N)cc(C)c1Oc1nc(NC2CCN(c3ccc(NS(N)(=O)=O)cc3)CC2)nc2c1COC2 | 0.12 µM | 0.0168 µM | 0.0889 µM | 23 µM | 1370 | 260 | 1.25 µM | 0.0131 µM | 0.0465 µM | 0.141 µM | 0.0346 µM | 0.0199 µM |  |
| Cc1cc(/C=C/C#N)cc(C)c1Oc1nc(NC2CCN(Cc3ccc(S(N)(=O)=O)cc3)CC2)nc2c1COC2 | 0.14 µM | 0.00624 µM | 0.0247 µM | 14.7 µM | 2360 | 595 | 0.00512 µM | 0.00597 µM | 0.00771 µM | 0.038 µM | 0.0103 µM | 0.0119 µM |  |
| Cc1cc(/C=C/C#N)cc(C)c1Oc1nc(Nc2ccc(N3CCN(S(N)(=O)=O)CC3)cc2)nc2c1COC2 | 0.71 µM |  |  |  |  |  |  |  |  |  |  |  |  |
| Cn1c(Cn2ccc(C(F)(F)F)c(Oc3cc(Cl)cc(C#N)c3)c2=O)n[nH]c1=O [DORAVIRINE] |  |  |  |  |  |  |  |  |  |  |  |  | EC50 [13]: 0.0133 µM; EC50 [14]: 0.0145 µM; CC50 [15]: > 293 µM; selectivity ratio [16]: > 21800; selectivity ratio [17]: > 20100 |
| Cc1cc(/C=C/C#N)cc(C)c1Oc1nc(Nc2ccc(C#N)cc2)nc2c1COC2 | 0.06 µM |  |  |  |  |  |  |  |  |  |  |  |  |
| Cc1cc(/C=C/C#N)cc(C)c1Oc1nc(NC2CCN(Cc3ccc(C(F)(F)F)cc3)CC2)nc2c1COC2 | 0.36 µM | 0.0195 µM | 0.19 µM | 5.01 µM | 256 | 26 | 0.0345 µM | 0.0301 µM | 0.0656 µM | 0.282 µM | 0.129 µM | 0.199 µM |  |
| Cc1cc(/C=C/C#N)cc(C)c1Oc1nc(NC2CCN(c3ccc(S(N)(=O)=O)cc3)CC2)nc2c1COC2 | 0.06 µM | 0.00418 µM | 1.3 µM | 27.3 µM | 6530 | 23 |  |  |  |  |  |  |  |
| Cc1cc(/C=C/C#N)cc(C)c1Oc1nc(Nc2ccc(N3CCC(NS(C)(=O)=O)C3)cc2)nc2c1COC2 (stereo unspecified) | 0.18 µM |  |  |  |  |  |  |  |  |  |  |  |  |
| Cc1cc(/C=C/C#N)cc(C)c1Oc1nc(NC2CCN(Cc3ccc(S(C)(=O)=O)cc3)CC2)nc2c1COC2 | 0.15 µM | 0.00433 µM | 0.0346 µM | 9.79 µM | 2260 | 283 | 0.00518 µM | 0.00647 µM | 0.00996 µM | 0.0414 µM | 0.0154 µM | 0.0163 µM |  |
| Cc1cc(/C=C/C#N)cc(C)c1Oc1nc(NC2CCN(c3ccc(C(N)=O)cc3)CC2)nc2c1COC2 | 0.06 µM | 0.00238 µM | 0.992 µM | > 233 µM | > 97900 | > 234 |  |  |  |  |  |  |  |

Source: ChEMBL document CHEMBL5038655, “Development of Novel Dihydrofuro[3,4-d]pyrimidine Derivatives as HIV-1 NNRTIs to Overcome the Highly Resistant Mutant Strains F227L/V106A and K103N/Y181C” (J Med Chem, 2022)
